Numbering of substitutions follows the chain as printed.
Legend:
[1] = target: human PNPO R161C variant; design: method as in Barile et al., [2021]; conditions: previous experiments, ref Barile et al., [2021]; cited from earlier work
[2] = target: T1, human PNPO F48A variant (holo-enzyme) (Homo sapiens, UniProt Q9NVS9, F48A); assay: PLP binding by FMN fluorescence changes, holo F48A; conditions: 100 nM enzyme, read-out: PLP binding KD^FLUO
T1 construct: a main form corresponding to the entire protein; made in house; host or cells: E. coli BL21(DE3)
T1 sequence (Q9NVS9 1-261 F48A): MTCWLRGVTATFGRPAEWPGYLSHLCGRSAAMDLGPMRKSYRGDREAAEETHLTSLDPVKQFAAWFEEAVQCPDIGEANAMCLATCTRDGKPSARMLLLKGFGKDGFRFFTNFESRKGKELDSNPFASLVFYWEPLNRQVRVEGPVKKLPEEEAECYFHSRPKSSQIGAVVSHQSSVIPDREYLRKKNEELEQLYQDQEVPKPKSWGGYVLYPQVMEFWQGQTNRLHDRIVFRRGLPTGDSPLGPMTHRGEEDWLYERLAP
Excerpt: PLP binding to PNPO can be detected and quantitatively measured using differential scanning fluorimetry (DSF) and also by measuring FMN fluorescence changes. We had previously attributed DSF changes to PLP binding at the active site, while FMN fluorescence changes were attributed to PLP binding at the allosteric site (Barile et al., [2019], [2020]). Previous experiments carried out with the PNPO R161C variant, affecting a residue that is essential for substrate binding and catalysis (and therefore also for PLP binding at the active site), confirms that DSF measurements only report PLP binding at the active site (Barile et al., [2021]; Table 1). […] We expected to observe no FMN fluorescence changes upon titration of the variants with PLP. However, this was not the case, and the dissociation constant values obtained by observing the FMN fluorescence emission were only up to threefold larger in the variants with respect to wild type PNPO (Figure 3). […] To check the second possibility, we measured intrinsic fluorescence changes of wild type and variant apo‐forms (i.e., without FMN) upon PLP titration. […]
Analyses of PLP binding, based on FMN fluorescence increase observed upon binding of PLP to PNPO, were performed as described in Barile et al. ([2020]). […] Emission spectra were recorded from […], with excitation and emission slits set at 3 and 5 nm, respectively. […]

[3] = target: T2, human PNPO F48A/E50L/H248N/R258L variant (Homo sapiens, UniProt Q9NVS9, E50L/F48A/H248N/R258L); assay: PLP inhibition kinetics of PNP oxidation, quadruple variant; type: biochemical; conditions: Na-HEPES pH 7.6, 2 μM enzyme, PLP 0–16 μM
T2 construct: a main form corresponding to the entire protein; made in house; host or cells: E. coli BL21(DE3)
T2 sequence (Q9NVS9 1-261 F48A/E50L/H248N/R258L): T1 sequence (Q9NVS9 1-261 F48A) with E50L, H248N, R258L
Protocol: This is a general inhibition mechanism that takes into account the possibility of PLP binding to both the active and allosteric sites. PLP binding at the active site gives a complete, competitive inhibition, whereas PLP binding at the allosteric site yields a substrate‐enzyme‐PLP ternary complex that is still catalytically active, although k CAT is reduced by a coefficient whose value is around 0.15. A thorough inhibition kinetic characterization was carried out with the wild type, F48A, F48A/E50L/R258L, and F48A/E50L/H248N/R258L PNPO forms, so as to evaluate the effect of the variations on the allosteric properties of the enzyme. The initial velocity of PNP conversion into PLP was measured in Na‐HEPES buffer (in which PLP is allowed to accumulate) by varying substrate concentration at different, fixed exogenous PLP concentrations, using 2 μM enzyme. A series of saturation curves were obtained that were used to fit the Michaelis–Menten equation (Figure 5), acquiring apparent V MAX and K M values as a function of PLP concentration. […]
FIGURE 5 Characterization of PLP inhibition. Upper panels: The initial velocity of the reaction was measured with 2 μM wild type (a), and the F48A (b), F48A/E50L/R258L (c), and F48A/E50L/H248N/R258L (d) PNPO variants, varying PNP concentration while keeping exogenous PLP fixed at different concentrations (0, 0.25, 0.5, 1, 2, 4, 8, and 16 μM). […]

Kd [2]: 1460 ± 90 nM | type of inhibition of PNP oxidation by PLP [3]: pure competitive inhibition
SMILES: Cc1ncc(COP(=O)(O)O)c(C=O)c1O [PLP, pyridoxal 5′‐phosphate]
PLP binding KD^DSF [1]: No binding

From publication PMC10804683, “Identification of the pyridoxal 5′‐phosphate allosteric site in human pyridox(am)ine 5′‐phosphate oxidase” (Protein Science : A Publication of the Protein Society, 2024)
